Data: US11918582B2 (RAPT Therapeutics, Inc., priority 2021, dated 2024)
Counter-ions that a name gives are not always drawn.

target: T1, human HPK1 (MAP4K1) (Homo sapiens, UniProt Q92918); assay: Biochemical assay for activity against HPK1 (ADP-Glo, MBP substrate); details: recombinant human HPK1 kinase domain, 1 nM enzyme, ADP-Glo luminescence
T1 construct: Recombinant human HPK1 kinase domain was obtained from ThermoFisher (Cat. #PV6357) and SignalChem (Cat. #M23-11G); purchased ThermoFisher; SignalChem PV6357; M23-11G
T1 sequence (Q92918 17-274 limits assumed): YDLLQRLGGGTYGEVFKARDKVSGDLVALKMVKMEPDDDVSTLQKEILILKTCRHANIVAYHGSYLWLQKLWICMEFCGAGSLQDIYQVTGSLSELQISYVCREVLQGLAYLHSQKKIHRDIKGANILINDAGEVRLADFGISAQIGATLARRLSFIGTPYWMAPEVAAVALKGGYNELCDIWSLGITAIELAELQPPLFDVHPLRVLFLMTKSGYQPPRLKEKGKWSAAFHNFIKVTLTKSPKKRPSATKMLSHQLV
Procedure, shortened: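 Recombinant human HPK1 kinase domain (1 nM solution) preincubated 15 min at room temperature with compounds in pH 7.5 HEPES buffer with NaCl, TCEP, MgCl2, Tween-20, BSA. MBP substrate with ATP added, reaction run 2 h at room temperature. ADP formation read by ADP-Glo luminescence to give IC50.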

SMILES | IC50
COc1cc2c(cc1Nc1ncc3cnn(C[C@H]4[C@@H](O)CCN4C(C)=O)c3n1)CN(C)CC2 [Example 131] | > 251 nM
COC(=O)NCCn1ncc2cnc(Nc3cc4c(cc3OC)CCN(C)C4)nc21 [Example 89, methyl N-[2-[6-[(6-methoxy-2-methyl-3,4-dihydro-1H-isoquinolin-7-yl)amino]pyrazolo[3,4-d]pyrimidin-1-yl]ethyl]carbamate] | 100 to 250 nM
CNC(=O)[C@@H]1CCC[C@@H](n2ncc3cnc(Nc4cc5c(cc4OC)CCN(C)C5)nc32)C1 [Example 53, (1R,3R)-3-(6-((6-methoxy-2-methyl-1,2,3,4-tetrahydroisoquinolin-7-yl)amino)-1H-pyrazolo[3,4-d]pyrimidin-1-yl)-N-methylcyclohexane-1-carboxamide] | < 100 nM
COc1cc2c(cc1Nc1ncc3cnn([C@H]4CC[C@H](NC(=O)CO)CC4)c3n1)CN(C)CC2 [Example 74, trans-2-hydroxy-N-[4-[6-[(6-methoxy-2-methyl-3,4-dihydro-1H-isoquinolin-7-yl)amino]pyrazolo[3,4-d]pyrimidin-1-yl]cyclohexyl]acetamide] | < 100 nM
COc1cc2c(cc1Nc1ncc3cnn(C[C@@H]4CCCN4C(C)=O)c3n1)C(C(F)(F)F)N(C)CC2 (stereo partly drawn) [Example 208, 1-((2S)-2-((6-((6-methoxy-2-methyl-1-(trifluoromethyl)-1,2,3,4-tetrahydroisoquinolin-7-yl)amino)-1H-pyrazolo[3,4-d]pyrimidin-1-yl)methyl)pyrrolidin-1-yl)ethan-1-one] | < 100 nM

Next, values leading:

IC50 | SMILES
< 100 nM | COc1cc2c(cc1Nc1ncc3cnn(C[C@H]4C[C@H]4C)c3n1)CN(C)CC2 (racemic) [Example 202, 6-methoxy-2-methyl-N-(1-((cis-2-methylcyclopropyl)methyl)-1H-pyrazolo[3,4-d]pyrimidin-6-yl)-1,2,3,4-tetrahydroisoquinolin-7-amine, Trifluoroacetate Salt]
< 100 nM | COc1cc2c(cc1Nc1ncc3cnn(C4CCN(C(C)=O)CC4)c3n1)CN(C)CC2 [Example 106, 1-(4-(6-((6-methoxy-2-methyl-1,2,3,4-tetrahydroisoquinolin-7-yl)amino)-1H-pyrazolo[3,4-d]pyrimidin-1-yl)piperidin-1-yl)ethan-1-one trifluoroacetate]
< 100 nM | COc1cc2c(cc1Nc1ncc3cnn(C[C@@H]4CCCN4C(C)=O)c3n1)[C@@H](C)N(C)CC2 [Example 184, 1-((S)-2-((6-(((R)-6-methoxy-1,2-dimethyl-1,2,3,4-tetrahydroisoquinolin-7-yl)amino)-1H-pyrazolo[3,4-d]pyrimidin-1-yl)methyl)pyrrolidin-1-yl)ethan-1-one]
< 100 nM | CC(=O)N1CCC[C@H]1Cn1ncc2cnc(Nc3ccc4c(c3)CN(C)CC4)nc21 [Example 139, (S)-1-(2-((6-((2-methyl-1,2,3,4-tetrahydroisoquinolin-7-yl)amino)-1H-pyrazolo[3,4-d]pyrimidin-1-yl)methyl)pyrrolidin-1-yl)ethan-1-one]
< 100 nM | COc1cc2c(cc1Nc1ncc3cnn(C[C@@H]4C[C@H](F)CN4C(C)=O)c3n1)CN(CCO)CC2 [Example 222, 1-((2S,4S)-4-fluoro-2-((6-((2-(2-hydroxyethyl)-6-methoxy-1,2,3,4-tetrahydroisoquinolin-7-yl)amino)-1H-pyrazolo[3,4-d]pyrimidin-1-yl)methyl)pyrrolidin-1-yl)ethan-1-one]
< 100 nM | CCC1CCCCC1n1ncc2cnc(Nc3cc4c(cc3OC)CCN(C)C4)nc21 (stereo not drawn) [Example 25, N-(1-(2-ethylcyclohexyl)-1H-pyrazolo[3,4-d]pyrimidin-6-yl)-6-methoxy-2-methyl-1,2,3,4-tetrahydroisoquinolin-7-amine]
< 100 nM | COc1cc2c(cc1Nc1ncc3cnn(C[C@H]4CC[C@H](O)CC4)c3n1)CN(C)CC2 [Example 199, (trans)-4-((6-((6-methoxy-2-methyl-1,2,3,4-tetrahydroisoquinolin-7-yl)amino)-1H-pyrazolo[3,4-d]pyrimidin-1-yl)methyl)cyclohexan-1-ol hydrochloride]
